# What was measured:
# Format in all cases: cell-based
# C3aR [1] = biological target: T1, C3aR (Homo sapiens, UniProt Q16581); assay: Histamine secretion in human LAD2 mast cells (agonist mode); design: Concentration-dependent histamine secretion in human LAD2 mast cells; endogenous in cells; host or cells: LAD2 human mast cells; settings: compound alone, 30 min, n ≥ 3, ± SEM
# T1 sequence (Q16581 1-482): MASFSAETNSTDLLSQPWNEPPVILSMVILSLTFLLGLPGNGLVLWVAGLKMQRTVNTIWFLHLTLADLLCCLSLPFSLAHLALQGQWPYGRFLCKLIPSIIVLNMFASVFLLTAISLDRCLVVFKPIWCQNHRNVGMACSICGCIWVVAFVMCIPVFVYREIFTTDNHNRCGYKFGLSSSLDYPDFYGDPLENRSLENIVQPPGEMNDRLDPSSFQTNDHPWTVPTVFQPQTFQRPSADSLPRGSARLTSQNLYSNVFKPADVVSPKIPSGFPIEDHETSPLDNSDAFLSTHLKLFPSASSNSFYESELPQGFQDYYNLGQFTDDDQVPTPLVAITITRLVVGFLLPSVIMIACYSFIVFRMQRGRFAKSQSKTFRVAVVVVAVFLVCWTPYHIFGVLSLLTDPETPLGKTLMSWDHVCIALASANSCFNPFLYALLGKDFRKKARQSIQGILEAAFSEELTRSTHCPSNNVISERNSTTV
# Experimental: (§1) LAD2 human mast cells (kindly provided by Dr Dean Metcalfe, National Institute of Allergy and Infectious Diseases, National Institute of Health) were cultured in StemPro®-34 Serum Free Media (Invitrogen, Australia) supplemented with StemPro®-34 nutrient, 100 U/mL penicillin, 100 μg/mL streptomycin, 2 mM GlutaMAX, and 100 ng/mL human stem cell factor (SCF). Cells were hemi-depleted weekly and were not allowed to grow beyond a density of 0.5 × 10^6/mL. This cell line was authenticated by expression of tryptase and histamine granules. For the histamine assay, 1 × 10^4 cells per well were seeded in StemPro®-34 SFM in 96-well plates for 30 min before any treatments. For agonist studies, the cells were treated with compounds prepared in media for 30 min. For antagonist studies, the cells were pre-treated with compounds prepared in SFM for 30 min before addition of C3aR agonists for another 30 min. Cells were centrifuged (500 g, 5 min, 4 °C) and cell-free supernatants were collected for measuring histamine. Histamine content was measured using the histamine EIA kit according to the manufacturer’s instructions (Abnova, Taiwan). The readings were recorded on a FLUOstar Optima (BMG LabTechnologies, Offenburg, Germany).
# C3aR [2] = biological target: T1, C3aR; assay: Intracellular Ca2+ release in human monocyte-derived macrophages (agonist mode); design: Concentration-dependent Ca^2+ release in human monocyte-derived macrophages (HMDMs); endogenous in cells; host or cells: primary human monocyte-derived macrophages (HMDMs); settings: HMDMs, n ≥ 3, ± SEM
# Experimental: (§2) HMDMs were isolated using Ficoll-paque density centrifugation (GE Healthcare Bio-Science, Uppsala, Sweden) from buffy coat (of anonymous human donors) provided by the Australian Red Cross Blood Service, Brisbane. CD14^+ monocytes were positively selected using CD14 MicroBeads (Miltenyi Biotech, Auburn, USA)[40], [41]. CD14^+ monocytes were differentiated to HMDMs using 100 ng/mL of recombinant human macrophage colony-stimulating factor (PeptroTech, Rocky Hill, USA) for 7 days in Iscove’s modified Dulbecco’s media supplemented with 10% fetal bovine serum, penicillin (100 U/mL), streptomycin (100 µg/mL) and L-glutamine (2 mM). HMDMs were supplemented after 5 days with fresh medium containing 10 ng/ml macrophage colony-stimulating factor and collected by gentle scraping on day 7.
# (§3) HMDMs were seeded to a 96-well clear-bottom black-wall assay plate at a density of 5 × 10^4 cells per well and allowed to adhere overnight. Prior to assay, cells were incubated with dye-loading buffer (Hank’s balance salt solution (HBSS) buffer, 4 μM Fluo-3 AM, 25 μl Pluronic acid F-127 and 1% fetal bovine serum) for 1 h at 37 °C. Cells were then washed once with assay buffer (HBSS supplemented with 2.5 mM probenecid and 20 mM HEPES, pH 7.4). Intracellular calcium release was monitored using a fluorescence imaging plate reader (excitation 495 nm, emission 520 nm). The percentage responses were plotted against logarithmic concentrations of each test compound[42].
# C3aR [3] = biological target: T1, C3aR; assay: Inhibition of hC3a-induced histamine secretion in human LAD2 mast cells (antagonist mode); design: Concentration-dependent histamine secretion in human LAD2 mast cells; endogenous in cells; host or cells: LAD2 human mast cells; settings: hC3a 100 nM, pre-treated 30 min, n ≥ 3, ± SEM
# Experimental: as §1
# C3aR [4] = biological target: T1, C3aR; assay: Inhibition of hC3a-induced Ca2+ release in human monocyte-derived macrophages; design: Concentration-dependent Ca^2+ release in human monocyte-derived macrophages (HMDMs); endogenous in cells; host or cells: primary human monocyte-derived macrophages (HMDMs); settings: HMDMs, hC3a 100 nM, n ≥ 3, ± SEM
# Experimental: as §2, §3
# C3aR [5] = biological target: T1, C3aR; assay: Antagonism of agonist 3-induced iCa2+ release in HMDMs (Schild analysis); design: Concentration-dependent Ca^2+ release in human monocyte-derived macrophages (HMDMs); endogenous in cells; host or cells: primary human monocyte-derived macrophages (HMDMs)
# Experimental: as §3
EC50 (C3aR [1]) [µM],EC50 (C3aR [2]) [µM],IC50 (C3aR [3]) [µM],IC50 (C3aR [4]) [µM],Mode of antagonism of agonist 3-induced Ca2+ release (C3aR [5]),"Schild plot slope (C3aR [5]; agonist 3 with 0–1000 nM antagonist 6, pre-treated 30 min, r2 = 0.99)",Compound
0.02 ± 0.01,0.022 ± 0.008,–,–,–,–,Cc1[nH]c(C(c2ccccc2)c2ccccc2)nc1C(=O)N[C@@H](CCCNC(=N)N)C(=O)O [Compound 3]
–,–,0.0035 ± 0.0015,0.085 ± 0.04,insurmountable antagonism,0.77 ± 0.05,N=C(N)NCCCC(NC(=O)c1ccc(C(c2ccccc2)c2ccccc2)s1)C(=O)O (stereo not drawn) [Compound 6]
